Laboratory results as given in publication PMC12621043, “Un-LOK-ing a New Approach for Conformational Selective Targeting of STK10 (LOK)” (ACS Medicinal Chemistry Letters, 2025).

The molecules below were run against T1, CDK2A (Homo sapiens, UniProt P24941) (assay: DSF Tm panel). Conditions: 10 μM compound.
T1 construct: purchased in-house DSF kinase panel (SGC-style construct names; the trailing letter is the construct ID)
Format: binding
In the case of `O=C(NCc1ccc(Cl)cc1Cl)Nc1ccc2cc1OCCOCCNc1ccn3ncc-2c3n1` [compound 20], the ΔTm at 10 µM is reported as 2.5 °C. In the case of `O=C(NCc1ccc(Cl)cc1F)Nc1ccc2cc1OCCOCCNc1ccn3ncc-2c3n1` [compound 21], the ΔTm at 10 µM is reported as 5.9 °C. Work on `Cc1cc(Cl)ccc1CNC(=O)Nc1ccc2cc1OCCOCCNc1ccn3ncc-2c3n1` [compound 23] yielded a ΔTm at 10 µM of 3.1 °C. With `Cc1cc(Br)ccc1CNC(=O)Nc1ccc2cc1OCCOCCNc1ccn3ncc-2c3n1` [compound 24] the ΔTm at 10 µM was 1.6 °C.

The molecules below were run against T2, EPHB3A (Homo sapiens, UniProt P54753) (assay: DSF Tm panel). Conditions: 10 μM compound.
T2 construct: purchased in-house DSF kinase panel (SGC-style construct names; the trailing letter is the construct ID)
T2 sequence (P54753 34-998): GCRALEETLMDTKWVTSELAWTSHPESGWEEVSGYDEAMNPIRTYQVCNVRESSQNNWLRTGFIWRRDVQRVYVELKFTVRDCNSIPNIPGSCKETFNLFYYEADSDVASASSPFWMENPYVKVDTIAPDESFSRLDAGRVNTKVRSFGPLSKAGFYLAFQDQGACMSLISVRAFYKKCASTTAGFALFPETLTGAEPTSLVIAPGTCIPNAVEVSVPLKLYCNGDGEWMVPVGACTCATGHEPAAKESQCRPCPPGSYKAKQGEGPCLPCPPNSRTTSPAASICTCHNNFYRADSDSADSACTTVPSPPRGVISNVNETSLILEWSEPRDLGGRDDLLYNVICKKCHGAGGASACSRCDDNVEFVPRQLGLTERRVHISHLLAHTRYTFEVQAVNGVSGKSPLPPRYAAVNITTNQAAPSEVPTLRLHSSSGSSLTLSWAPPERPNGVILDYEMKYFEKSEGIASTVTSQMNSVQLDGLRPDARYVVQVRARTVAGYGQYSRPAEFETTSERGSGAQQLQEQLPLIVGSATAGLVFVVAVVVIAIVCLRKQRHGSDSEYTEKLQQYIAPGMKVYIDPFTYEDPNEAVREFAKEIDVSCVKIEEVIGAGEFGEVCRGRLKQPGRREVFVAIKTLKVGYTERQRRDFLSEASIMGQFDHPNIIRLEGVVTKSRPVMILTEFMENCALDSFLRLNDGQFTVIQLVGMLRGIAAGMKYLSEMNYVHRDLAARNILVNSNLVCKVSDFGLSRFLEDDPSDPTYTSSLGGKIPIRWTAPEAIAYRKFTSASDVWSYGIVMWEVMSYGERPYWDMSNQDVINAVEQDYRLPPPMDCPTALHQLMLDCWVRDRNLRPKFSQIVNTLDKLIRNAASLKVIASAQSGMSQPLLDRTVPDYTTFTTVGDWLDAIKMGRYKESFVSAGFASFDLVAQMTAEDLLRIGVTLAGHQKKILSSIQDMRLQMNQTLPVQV
Format: binding
Molecule `O=C(NCc1ccc(Cl)cc1Cl)Nc1ccc2cc1OCCOCCNc1ccn3ncc-2c3n1` [compound 20] has a ΔTm at 10 µM of 0.1 °C. Molecule `O=C(NCc1ccc(Cl)cc1F)Nc1ccc2cc1OCCOCCNc1ccn3ncc-2c3n1` [compound 21] has a ΔTm at 10 µM of -0.4 °C. `Cc1cc(Cl)ccc1CNC(=O)Nc1ccc2cc1OCCOCCNc1ccn3ncc-2c3n1` [compound 23] showed a ΔTm at 10 µM of 0.9 °C. Work on `Cc1cc(Br)ccc1CNC(=O)Nc1ccc2cc1OCCOCCNc1ccn3ncc-2c3n1` [compound 24] yielded a ΔTm at 10 µM of 0.7 °C.

The molecules below were run against T3, CASKA (Homo sapiens, UniProt O14936) (assay: DSF Tm panel). Conditions: 10 μM compound.
T3 construct: purchased in-house DSF kinase panel (SGC-style construct names; the trailing letter is the construct ID)
T3 sequence (O14936 12-276): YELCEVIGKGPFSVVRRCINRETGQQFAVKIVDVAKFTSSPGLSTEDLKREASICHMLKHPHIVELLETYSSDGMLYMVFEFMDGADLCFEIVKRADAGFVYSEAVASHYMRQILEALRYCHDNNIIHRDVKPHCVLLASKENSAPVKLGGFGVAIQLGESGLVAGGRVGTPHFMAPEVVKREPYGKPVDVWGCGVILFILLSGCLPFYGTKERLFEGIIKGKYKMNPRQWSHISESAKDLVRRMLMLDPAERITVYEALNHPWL
Format: binding
Work on `O=C(NCc1ccc(Cl)cc1Cl)Nc1ccc2cc1OCCOCCNc1ccn3ncc-2c3n1` [compound 20] yielded a ΔTm at 10 µM of 1.7 °C. In the case of `O=C(NCc1ccc(Cl)cc1F)Nc1ccc2cc1OCCOCCNc1ccn3ncc-2c3n1` [compound 21], the ΔTm at 10 µM is reported as 2.7 °C. Work on `Cc1cc(Cl)ccc1CNC(=O)Nc1ccc2cc1OCCOCCNc1ccn3ncc-2c3n1` [compound 23] yielded a ΔTm at 10 µM of 2.5 °C. `Cc1cc(Br)ccc1CNC(=O)Nc1ccc2cc1OCCOCCNc1ccn3ncc-2c3n1` [compound 24] showed a ΔTm at 10 µM of 0.6 °C.

Each molecule was assayed against T4, STK39A (Homo sapiens, UniProt Q9UEW8) (assay: DSF Tm panel). Conditions: 10 μM compound.
T4 construct: purchased in-house DSF kinase panel (SGC-style construct names; the trailing letter is the construct ID)
Format: binding
Work on `O=C(NCc1ccc(Cl)cc1Cl)Nc1ccc2cc1OCCOCCNc1ccn3ncc-2c3n1` [compound 20] yielded a ΔTm at 10 µM of 1.9 °C. `O=C(NCc1ccc(Cl)cc1F)Nc1ccc2cc1OCCOCCNc1ccn3ncc-2c3n1` [compound 21] showed a ΔTm at 10 µM of 2.4 °C. `Cc1cc(Cl)ccc1CNC(=O)Nc1ccc2cc1OCCOCCNc1ccn3ncc-2c3n1` [compound 23] gave a ΔTm at 10 µM of 2.5 °C. `Cc1cc(Br)ccc1CNC(=O)Nc1ccc2cc1OCCOCCNc1ccn3ncc-2c3n1` [compound 24] showed a ΔTm at 10 µM of 1 °C.

Each molecule was assayed against T5, STK17BA (Homo sapiens, UniProt O94768) (assay: DSF Tm panel). Conditions: 10 μM compound.
T5 construct: purchased in-house DSF kinase panel (SGC-style construct names; the trailing letter is the construct ID)
T5 sequence (O94768 25-329): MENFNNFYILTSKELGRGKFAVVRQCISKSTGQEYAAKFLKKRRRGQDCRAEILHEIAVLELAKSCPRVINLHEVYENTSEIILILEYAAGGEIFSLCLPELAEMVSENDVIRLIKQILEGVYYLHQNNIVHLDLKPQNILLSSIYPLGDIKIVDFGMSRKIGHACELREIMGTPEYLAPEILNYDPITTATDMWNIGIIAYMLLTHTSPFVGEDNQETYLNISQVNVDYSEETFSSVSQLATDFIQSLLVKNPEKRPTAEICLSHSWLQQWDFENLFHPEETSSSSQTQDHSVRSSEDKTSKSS
Format: binding
Work on `O=C(NCc1ccc(Cl)cc1Cl)Nc1ccc2cc1OCCOCCNc1ccn3ncc-2c3n1` [compound 20] yielded a ΔTm at 10 µM of 2.8 °C. Molecule `O=C(NCc1ccc(Cl)cc1F)Nc1ccc2cc1OCCOCCNc1ccn3ncc-2c3n1` [compound 21] has a ΔTm at 10 µM of 2.7 °C. `Cc1cc(Cl)ccc1CNC(=O)Nc1ccc2cc1OCCOCCNc1ccn3ncc-2c3n1` [compound 23] gave a ΔTm at 10 µM of 3.3 °C. Molecule `Cc1cc(Br)ccc1CNC(=O)Nc1ccc2cc1OCCOCCNc1ccn3ncc-2c3n1` [compound 24] has a ΔTm at 10 µM of 3.6 °C.

These molecules were tested against T6, FGFR2A (Homo sapiens, UniProt P21802) (assay: DSF Tm panel). Conditions: 10 μM compound.
T6 construct: purchased in-house DSF kinase panel (SGC-style construct names; the trailing letter is the construct ID)
T6 sequence (P21802 458-770): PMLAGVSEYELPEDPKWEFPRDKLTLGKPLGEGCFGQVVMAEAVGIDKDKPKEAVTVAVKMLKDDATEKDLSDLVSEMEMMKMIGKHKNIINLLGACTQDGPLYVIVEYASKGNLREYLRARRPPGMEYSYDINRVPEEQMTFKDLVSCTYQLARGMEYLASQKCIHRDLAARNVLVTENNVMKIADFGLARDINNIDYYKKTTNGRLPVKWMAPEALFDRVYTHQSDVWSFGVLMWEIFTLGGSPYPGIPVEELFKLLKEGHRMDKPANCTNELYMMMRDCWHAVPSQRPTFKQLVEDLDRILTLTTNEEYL
Format: binding
With `O=C(NCc1ccc(Cl)cc1Cl)Nc1ccc2cc1OCCOCCNc1ccn3ncc-2c3n1` [compound 20] the ΔTm at 10 µM was 0.9 °C. `O=C(NCc1ccc(Cl)cc1F)Nc1ccc2cc1OCCOCCNc1ccn3ncc-2c3n1` [compound 21] was tested, and the ΔTm at 10 µM was 2.3 °C. Work on `Cc1cc(Cl)ccc1CNC(=O)Nc1ccc2cc1OCCOCCNc1ccn3ncc-2c3n1` [compound 23] yielded a ΔTm at 10 µM of 1.9 °C. `Cc1cc(Br)ccc1CNC(=O)Nc1ccc2cc1OCCOCCNc1ccn3ncc-2c3n1` [compound 24] was tested, and the ΔTm at 10 µM was 2.2 °C.

What follows are molecules tested against T7, DCAMKL1A (Homo sapiens, UniProt O15075) (assay: DSF Tm panel). Conditions: 10 μM compound.
T7 construct: purchased in-house DSF kinase panel (SGC-style construct names; the trailing letter is the construct ID)
T7 sequence (O15075 372-649): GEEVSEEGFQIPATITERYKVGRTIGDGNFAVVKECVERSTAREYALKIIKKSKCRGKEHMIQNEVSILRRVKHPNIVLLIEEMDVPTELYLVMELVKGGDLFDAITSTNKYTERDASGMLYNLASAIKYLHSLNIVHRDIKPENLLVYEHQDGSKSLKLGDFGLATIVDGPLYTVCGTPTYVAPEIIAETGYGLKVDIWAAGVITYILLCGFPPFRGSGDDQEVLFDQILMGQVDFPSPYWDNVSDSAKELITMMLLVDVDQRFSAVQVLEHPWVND
Format: binding
Molecule `O=C(NCc1ccc(Cl)cc1Cl)Nc1ccc2cc1OCCOCCNc1ccn3ncc-2c3n1` [compound 20] has a ΔTm at 10 µM of 0.6 °C. In the case of `O=C(NCc1ccc(Cl)cc1F)Nc1ccc2cc1OCCOCCNc1ccn3ncc-2c3n1` [compound 21], the ΔTm at 10 µM is reported as 0.4 °C. `Cc1cc(Cl)ccc1CNC(=O)Nc1ccc2cc1OCCOCCNc1ccn3ncc-2c3n1` [compound 23] gave a ΔTm at 10 µM of 0.7 °C. `Cc1cc(Br)ccc1CNC(=O)Nc1ccc2cc1OCCOCCNc1ccn3ncc-2c3n1` [compound 24] was tested, and the ΔTm at 10 µM was 1.6 °C.

The molecules below were run against T8, MAP2K1A (Homo sapiens, UniProt Q02750) (assay: DSF Tm panel). Conditions: 10 μM compound.
T8 construct: purchased in-house DSF kinase panel (SGC-style construct names; the trailing letter is the construct ID)
T8 sequence (Q02750 68-361): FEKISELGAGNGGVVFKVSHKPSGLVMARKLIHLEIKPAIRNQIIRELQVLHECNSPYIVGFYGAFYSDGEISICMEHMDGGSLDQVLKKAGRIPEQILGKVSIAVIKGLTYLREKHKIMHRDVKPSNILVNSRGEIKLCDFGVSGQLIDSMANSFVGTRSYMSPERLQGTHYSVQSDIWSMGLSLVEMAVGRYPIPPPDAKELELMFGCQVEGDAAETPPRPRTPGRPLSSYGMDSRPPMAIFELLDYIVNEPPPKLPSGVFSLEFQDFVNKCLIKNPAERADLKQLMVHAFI
Format: binding
Protocol: The synthesized urea-based derivatives were evaluated in a panel of kinases by differential scanning fluorescence (DSF) to investigate their selectivity profile. A positive ΔT m in the DSF assay indicates stabilization of the protein upon ligand binding in comparison to its apo state, with higher thermal shifts generally correlating with stronger binding. For this purpose, we used our internal kinase selectivity panel (∼90 kinases) along with staurosporine as a positive control. […] This was also reflected in the overall low selectivity score (S) throughout the series, which is determined by the ratio between the number of kinases that are stabilized above 5 °C and the total number of kinases tested (Figure ). Motivated by these findings, we further validated the entire series by orthogonal binding and activity assays to determine the in vitro and cellular potency and selectivity of the developed series in comparison to the selected reference compounds. […]
was performed as previously described.[1,2] Briefly, recombinant protein kinase domains at a concentration of 2 μM were mixed with 10 μM compound in a buffer containing 20 mM HEPES, […]
probe (1 µl per mL). Subsequently, temperature-dependent protein unfolding profiles were […]
emission filters were set to 465 nm and 590 nm, respectively. The temperature was raised with a step rate of 3 °C per minute. […]
inflection point of the transition curve. […]
previously.[3] In brief, STK10, STK3, STK4 and SLK were obtained as plasmids cloned in […]
Plasmids were transfected into
KD concentration taken from TracerDB (tracerdb.org)[4] were pipetted into white 384-well
`O=C(NCc1ccc(Cl)cc1Cl)Nc1ccc2cc1OCCOCCNc1ccn3ncc-2c3n1` [compound 20] showed a ΔTm at 10 µM of 0.8 °C. With `O=C(NCc1ccc(Cl)cc1F)Nc1ccc2cc1OCCOCCNc1ccn3ncc-2c3n1` [compound 21] the ΔTm at 10 µM was 1.2 °C. With `Cc1cc(Cl)ccc1CNC(=O)Nc1ccc2cc1OCCOCCNc1ccn3ncc-2c3n1` [compound 23] the ΔTm at 10 µM was 0.6 °C. In the case of `Cc1cc(Br)ccc1CNC(=O)Nc1ccc2cc1OCCOCCNc1ccn3ncc-2c3n1` [compound 24], the ΔTm at 10 µM is reported as 0.6 °C.

Each molecule was assayed against SLK (Homo sapiens, UniProt Q9H2G2) (assay: DSF Tm panel). Conditions: 10 μM compound.
Format: binding
Set-up: purchased in-house DSF kinase panel (SGC-style construct names; the trailing letter is the construct ID)
In the case of `O=C(NCc1ccc(Cl)cc1Cl)Nc1ccc2cc1OCCOCCNc1ccn3ncc-2c3n1` [compound 20], the ΔTm at 10 µM is reported as 5.8 °C. `O=C(NCc1ccc(Cl)cc1F)Nc1ccc2cc1OCCOCCNc1ccn3ncc-2c3n1` [compound 21] showed a ΔTm at 10 µM of 5.7 °C. In the case of `Cc1cc(Cl)ccc1CNC(=O)Nc1ccc2cc1OCCOCCNc1ccn3ncc-2c3n1` [compound 23], the ΔTm at 10 µM is reported as 3.5 °C. Molecule `Cc1cc(Br)ccc1CNC(=O)Nc1ccc2cc1OCCOCCNc1ccn3ncc-2c3n1` [compound 24] has a ΔTm at 10 µM of 2.9 °C.
